# Measurements published in the SangsterLogP compilation.
# Tests used:
# [1] = method code SF-HPLC, from DOI: 10.1080/10826079708014133; conditions: pH 11.0
SMILES,logD [1],logP
Cc1ccc(C)c(OCC2CN=C(N)O2)c1 (configuration not stated),2.29,
Cc1ccc(OCC2CN=C(N)O2)c(C)c1 (configuration not stated),2.23,
Cc1cccc(C)c1OCC1CN=C(N)O1 (configuration not stated),2,
NC1=NCC(COc2cccc(C(F)(F)F)c2)O1 (configuration not stated),2.35,
Cc1cccc(OCC2CN=C(N)O2)c1C (configuration not stated),2.25,
NC1=NCC(COc2cccc(Cl)c2)O1 (configuration not stated),2.09,

# Continued, values first:
logD [1],logP,SMILES
2.1,,Cc1ccc(OCC2CN=C(N)O2)cc1C (configuration not stated)
2.27,,CCc1ccc(OCC2CN=C(N)O2)cc1 (configuration not stated)
1.75,,Cc1cccc(OCC2CN=C(N)O2)c1 (configuration not stated)
,3.69,CCC(C)(C)c1ccc(OCC2CN=C(N)O2)cc1 (configuration not stated)
,3.05,NC1=NCC(COc2ccccc2Cc2ccccc2)O1 (configuration not stated)
2.8,,NC1=NCC(COc2ccc(-c3ccccc3)cc2)O1 (configuration not stated)
